The values below come from US8030043B2, “β-galactoside-α2,3-sialyltransferase, a gene encoding thereof, and a method for producing thereof” (Japan Tobacco Inc., priority 2005, dated 2011).

The subject of experiment [1] is ISH224-N1C0 recombinant β-galactoside-α2,3-sialyltransferase. In words: Acceptor substrate specificity of recombinant β-galactoside-α2,3-sialyltransferase (mono-, di-, trisaccharides). The class given is biochemical, Photobacterium sp. An excerpt:
(§1) Cell homogenates prepared from E. coli cells introduced with the third clone of ISH467-N2C0, the first clone of ISH224-N1C0 and the first clone of FAJ-N1C0 were each purified by ion exchange chromatography and hydroxyapatite chromatography to give an electrophoretically single band. The thus purified β-galactoside-α2,3-sialyltransferases were used in the following experiment in order to examine the presence or absence of sialyltransferase activity toward various monosaccharides, disaccharides and trisaccharides.
(§2) A reaction solution (24 μl) was prepared to contain CMP-^14C-NeuAc-containing CMP-NeuAc as a glycosyl donor substrate ([…], final concentration in the reaction solution: […]), any of various glycosyl acceptor substrates dissolved in 20 mM cacodylate buffer (pH 5.0) (1 μmol, final concentration in the reaction solution: 42 mM), sialyltransferase (in an amount as indicated in the footnotes of the tables below) and NaCl (final concentration in the reaction solution: 500 mM), and reacted under conditions as indicated in the footnotes of the tables below. The monosaccharides used as glycosyl acceptor substrates were the following 10 types: methyl-α-D-galactopyranoside (Gal-α-OMe), methyl-(β-D-galactopyranoside (Gal-β-OMe), methyl-α-D-glucopyranoside (Glc-α-OMe), methyl-β-D-glucopyranoside (Glc-β-OMe), methyl-α-D-mannopyranoside (Man-α-OMe), methyl-β-D-mannopyranoside (Man-β-OMe), methyl-α-D-fucopyranoside (Fuc-α-OMe), methyl-β-D-fucopyranoside (Fuc-β-OMe), N-acetylgalactosamine (GalNAc), and N-acetylglucosamine ([…]). The disaccharides used were the following 5 types: lactose (Gal-β1,4-Glc), N-acetyllactosamine (Gal-β1,4-GlcNAc), methyl-β-D-galactopyranosyl-β1,3-N-acetylglucosaminide (Gal-β1,3-GlcNAc-β-OMe), methyl-α-D-galactopyranosyl-α1,3-galactopyranoside (Gal-α-1,3-Gal-α-OMe), and methyl-β-D-galactopyranosyl-β1,3-galactopyranoside (Gal-β1,3-Gal-β-OMe). The trisaccharide used was 2′-fucosyllactose (Fuc-α1,2-Galβ1,4-Glc). It should be noted that the final concentration was set to 8.4 mM for the sugar chains shown in Table 18, i.e., methyl-α-D-galactopyranosyl-α1,3-galactopyranoside (Gal-α1,3-Gal-α-OMe), methyl-β-D-galactopyranosyl-β1,3-galactopyranoside (Gal-β1,3-Gal-β-OMe) and 2′-fucosyllactose (Fuc-α1,2-Gal-β1,4-Glc).
(§3) After completion of the enzymatic reaction, 1.98 ml of 5 mM phosphate buffer (pH 6.8) was added to the reaction solution to stop the enzymatic reaction. Then, the enzymatic reaction solution was diluted with 5 mM phosphate buffer (pH 6.8) and applied in a volume of 2 ml to a AG1−×2 Resin (PO4^3− form, 0.2×2 cm) column. This column was prepared as follows: AG1-x 2 Resin (OH^− form, BIO-RAD) was suspended in 1 M phosphate buffer (pH 6.8), and after 30 minutes, the resin was washed with distilled water and then suspended in distilled water. The eluate (0 to 2 ml) from this column was measured for its radioactivity. The eluate from this column contains the unreacted glycosyl acceptor substrate and the ^14C-NeuAc (N-acetylneuraminic acid)-bound reaction product which was generated by the reaction, but unreacted CMP-14C-NeuAc is still retained on the column. Thus, the radioactivity of ^14C from each sialic acid-containing sugar chain generated as a result of the enzymatic reaction arises exclusively from the reaction product, so that the radioactivity of this fraction can be used to calculate the enzyme activity.
(§4) In the manner described above, the radioactivity of NeuAc transferred to each glycosyl acceptor substrate was measured to calculate the amount of transferred sialic acid.

The test system of experiment [2] is α2,3-sialyltransferase derived from strain JT-ISH-467. In words: Sialic acid transfer to monosaccharides and disaccharides by partially purified α2,3-sialyltransferase (CMP-14C-NeuAc donor, radioactivity of column eluate). The experiment is classed as biochemical, Photobacterium phosphoreum. The following applies: 25° C., 4 hours, acceptor 10 μmol (200 mM), CMP-14C-NeuAc 400 nmol, sialyltransferase 0.13 mU, NaCl 500 mM. How it is done:
A cell homogenate prepared from the strain JT-ISH-467 was partially purified by ion exchange chromatography, hydroxyapatite chromatography, and gel filtration chromatography. The thus partially purified α2,3-sialyltransferase was used in the following experiment in order to confirm the transfer of sialic acid to various monosaccharides and disaccharides.
The enzymatic reaction was carried out at 25° C. for 4 hours in a reaction solution (24 μl) prepared to contain CMP-^14C-NeuAc as a glycosyl donor substrate (400 nmol (15600 cpm), final concentration in the reaction solution: 16.6 mM), any of various glycosyl acceptor substrates (10 μmol, final concentration in the reaction solution: 200 mM), sialyltransferase (0.13 mU) and NaCl (final concentration in the reaction solution: 500 mM). The monosaccharides and disaccharides used as glycosyl acceptor substrates were the following 6 substances: methyl-α-D-galactopyranoside (Gal-α-OMe), methyl-β-D-galactopyranoside (Gal-β-OMe), N-acetylgalactosamine (GalNAc), lactose (Gal-β1,4-Glc), N-acetyllactosamine (Gal-β1,4-GlcNAc), and methyl-β-D-galactopyranosyl-β-1,3-N-acetylglucosaminide (Gal-β1,3-GlcNAc-β-OMe).
as §3, with “AG1-×2” for “AG1−×2”, “AG1-×2” for “AG1-x 2”, “CMP-^14C-NeuAc” for “CMP-14C-NeuAc”
as §4

Experiment [3] deals with ISH467-N2C0 recombinant β-galactoside-α2,3-sialyltransferase. In words: Acceptor substrate specificity of recombinant β-galactoside-α2,3-sialyltransferase (mono-, di-, trisaccharides). The experiment is classed as biochemical, Photobacterium phosphoreum.
Description: as §1, §2, §3, §4

Experiment [4] concerns FAJ-N1C0 recombinant β-galactoside-α2,3-sialyltransferase. In words: Acceptor substrate specificity of recombinant β-galactoside-α2,3-sialyltransferase (mono-, disaccharides). The class given is biochemical, Vibrio sp. On the set-up: FAJ-N1C0 Sialyltransferase activity Relative activity (%): tested at 42 mM. Particulars: 20° C., 14 hours; for FAJ-N1C0 Sialyltransferase activity: Table 16: 1 μmol acceptor, pH 5.0, about 2.5 mU enzyme; for FAJ-N1C0 Sialyltransferase activity Relative activity (%): Table 16: activity toward lactose set to 100.
Description: as §1, §2, §3, §4

Where [5] appears, read: Table 16: 1 μmol acceptor, pH 5.0, about 2.5 mU enzyme, 20° C., 14 hours.
The mark [6] stands for this setting: Table 16: activity toward lactose set to 100, 20° C., 14 hours.
Where [7] appears, read: Table 17: 1 μmol acceptor, pH 5.0, 1.0 mU per reaction, 30° C., 0.5 minutes or 2 minutes.
[8] abbreviates: Table 17: activity toward lactose set to 100, 30° C., 0.5 minutes or 2 minutes.
Where [9] appears, read: Table 18: activity toward lactose set to 100, 0.2 μmol acceptor, 30° C., 2 minutes.
[10] abbreviates: Table 17: 1 μmol acceptor, pH 5.0, 2.3 mU per reaction, 30° C., 0.5 minutes or 2 minutes.

Turning to `OC[C@H]1O[C@@H](O[C@H]2[C@H](O)[C@@H](O)C(O)O[C@@H]2CO)[C@H](O)[C@@H](O)[C@H]1O` (stereo partly drawn) [Lactose, lactose], the “ISH224-N1C0 Sialyltransferase activity” value in experiment [1] (setting [5]) worked out at 8.4 nmol/min; in experiment [1] (setting [7]) it was 1.03 nmol/min; in experiment [1] (Table 18: 0.2 μmol acceptor (8.4 mM), pH 5.0, 1.0 mU per reaction, 30° C., 2 minutes), 1.51 nmol/min. Further, the “ISH224-N1C0 Sialyltransferase activity Relative activity (%)” value in experiment [1] (setting [6]), in experiment [1] (setting [8]) and in experiment [1] (setting [9]) was 100% throughout. In experiment [2], the “Amount of transferred sialic acid” value turned out to be 57.9 nmol. Besides, the “ISH467-N2C0 Sialyltransferase activity” value in experiment [3] (setting [5]) is 7.8 nmol/min; in experiment [3] (setting [10]) it was 2.29 nmol/min; in experiment [3] (Table 18: 0.2 μmol acceptor (8.4 mM), pH 5.0, 23 mU per reaction, 30° C., 2 minutes) it was 1.64 nmol/min. For the same compound, the “ISH467-N2C0 Sialyltransferase activity Relative activity (%)” value in experiment [3] (setting [6]), in experiment [3] (setting [8]) and in experiment [3] (setting [9]) was 100% throughout. The “FAJ-N1C0 Sialyltransferase activity” value in experiment [4] stood at 7.6 nmol/min. In addition, the “FAJ-N1C0 Sialyltransferase activity Relative activity (%)” value in experiment [4] was found to be 100%.
`CC(=O)N[C@H]1C(O)O[C@H](CO)[C@H](O)[C@@H]1O` (stereo partly drawn) [N-Acetylgalactosamine, N-acetylgalactosamine]: the results for the “ISH224-N1C0 Sialyltransferase activity” value in experiment [1] (setting [5]) and in experiment [1] (setting [7]) were 5.8 nmol/min and 0.78 nmol/min, respectively. Further, the “ISH224-N1C0 Sialyltransferase activity Relative activity (%)” value in experiment [1] (setting [6]) was 69%; in experiment [1] (setting [8]), 76%. In experiment [2], the “Amount of transferred sialic acid” value is given as 37.8 nmol. In addition, the “ISH467-N2C0 Sialyltransferase activity” value is 5.4 nmol/min in experiment [3] (setting [5]) and 0.99 nmol/min in experiment [3] (setting [10]). In addition, the “ISH467-N2C0 Sialyltransferase activity Relative activity (%)” value in experiment [3] (setting [6]) is 69%; in experiment [3] (setting [8]) it was 43%. The “FAJ-N1C0 Sialyltransferase activity” value in experiment [4] was 4.4 nmol/min. Besides, in experiment [4], the “FAJ-N1C0 Sialyltransferase activity Relative activity (%)” value was determined as 58%.
For the compound `CC(=O)N[C@H]1C(O)O[C@H](CO)[C@@H](O[C@@H]2O[C@H](CO)[C@H](O)[C@H](O)[C@H]2O)[C@@H]1O` (stereo partly drawn) [Lactosamine, N-acetyllactosamine], the “ISH224-N1C0 Sialyltransferase activity” value was found to be 9.7 nmol/min in experiment [1] (setting [5]) and 0.99 nmol/min in experiment [1] (setting [7]). For the same compound, the “ISH224-N1C0 Sialyltransferase activity Relative activity (%)” value in experiment [1] (setting [6]) amounted to 115%; in experiment [1] (setting [8]) it was 96%. Moreover, the “Amount of transferred sialic acid” value is given as “highest in amount of transferred sialic acid” in experiment [2] and 74.9 nmol in experiment [2] (listed as Gal-β1,4-GlcNAc). The results for the “ISH467-N2C0 Sialyltransferase activity” value in experiment [3] (setting [5]) and in experiment [3] (setting [10]) were 9.2 nmol/min and 2.36 nmol/min, respectively. The “ISH467-N2C0 Sialyltransferase activity Relative activity (%)” value in experiment [3] (setting [6]) is reported as 118%; in experiment [3] (setting [8]) it was 103%. Further, the “FAJ-N1C0 Sialyltransferase activity” value in experiment [4] turned out to be 9.6 nmol/min. In experiment [4], the “FAJ-N1C0 Sialyltransferase activity Relative activity (%)” value was determined as 127%.
As to `CO[C@@H]1O[C@H](CO)[C@@H](O)[C@H](O[C@@H]2O[C@H](CO)[C@H](O)[C@H](O)[C@H]2O)[C@H]1NC(C)=O` [methyl-β-D-galactopyranosyl-β1,3-N-acetylglucosaminide], the “ISH224-N1C0 Sialyltransferase activity” value in experiment [1] (setting [5]) stood at 9.4 nmol/min; in experiment [1] (setting [7]), 1.98 nmol/min. In addition, the “ISH224-N1C0 Sialyltransferase activity Relative activity (%)” value was 111% in experiment [1] (setting [6]) and 192% in experiment [1] (setting [8]). For the same compound, the “Amount of transferred sialic acid” value in experiment [2] is on record as 71.1 nmol. Besides, the results for the “ISH467-N2C0 Sialyltransferase activity” value in experiment [3] (setting [5]) and in experiment [3] (setting [10]) were 9.6 nmol/min and 2.95 nmol/min, respectively. Besides, the figures for the “ISH467-N2C0 Sialyltransferase activity Relative activity (%)” value in experiment [3] (setting [6]) and in experiment [3] (setting [8]) were 122% and 129%, respectively. Moreover, in experiment [4], the “FAJ-N1C0 Sialyltransferase activity” value turned out to be 9.4 nmol/min. In experiment [4], the “FAJ-N1C0 Sialyltransferase activity Relative activity (%)” value stood at 124%.
With `CO[C@@H]1O[C@H](CO)[C@H](O)[C@H](O)[C@H]1O` [Methylβgalactopyranoside, methyl-β-D-galactopyranoside], the “ISH224-N1C0 Sialyltransferase activity” value in experiment [1] (setting [5]) is given as 8.9 nmol/min; in experiment [1] (setting [7]) it was 3.54 nmol/min. Also, the “ISH224-N1C0 Sialyltransferase activity Relative activity (%)” value in experiment [1] (setting [6]) came out at 105%; in experiment [1] (setting [8]), 343%. The “Amount of transferred sialic acid” value in experiment [2] was 50.2 nmol. The “ISH467-N2C0 Sialyltransferase activity” value is on record as 9.1 nmol/min in experiment [3] (setting [5]) and 5.77 nmol/min in experiment [3] (setting [10]). Besides, the figures for the “ISH467-N2C0 Sialyltransferase activity Relative activity (%)” value in experiment [3] (setting [6]) and in experiment [3] (setting [8]) were 116% and 251%, respectively. Moreover, the “FAJ-N1C0 Sialyltransferase activity” value in experiment [4] is on record as 8.7 nmol/min. Moreover, in experiment [4], the “FAJ-N1C0 Sialyltransferase activity Relative activity (%)” value is given as 114%.
